This assay concerns the target T1, NADPH oxidase (Rattus norvegicus, UniProt Q9WV87).
T1 construct: 12 500 208Fsrc3 cells (100 μl) received the stated concentrations of Cu SOD and 120 μM EUK-8; endogenous in cells; host or cells: 208Fsrc3 transformed rat fibroblasts
T1 sequence (Q9WV87 1-563): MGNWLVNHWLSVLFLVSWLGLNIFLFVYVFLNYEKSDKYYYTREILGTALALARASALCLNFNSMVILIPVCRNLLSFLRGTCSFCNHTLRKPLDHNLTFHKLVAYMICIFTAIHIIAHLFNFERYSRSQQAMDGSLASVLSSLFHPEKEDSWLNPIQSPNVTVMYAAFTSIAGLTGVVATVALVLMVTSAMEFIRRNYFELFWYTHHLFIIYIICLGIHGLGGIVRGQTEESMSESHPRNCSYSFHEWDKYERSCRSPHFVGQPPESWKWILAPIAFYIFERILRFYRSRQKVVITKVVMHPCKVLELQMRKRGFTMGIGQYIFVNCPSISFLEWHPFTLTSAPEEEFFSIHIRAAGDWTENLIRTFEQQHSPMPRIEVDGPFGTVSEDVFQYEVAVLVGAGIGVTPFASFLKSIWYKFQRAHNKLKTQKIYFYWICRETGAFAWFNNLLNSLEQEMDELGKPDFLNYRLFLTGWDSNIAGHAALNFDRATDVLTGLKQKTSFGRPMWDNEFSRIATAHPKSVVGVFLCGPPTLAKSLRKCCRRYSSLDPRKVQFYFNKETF
T1 sequence (Q62737 1-192 partner): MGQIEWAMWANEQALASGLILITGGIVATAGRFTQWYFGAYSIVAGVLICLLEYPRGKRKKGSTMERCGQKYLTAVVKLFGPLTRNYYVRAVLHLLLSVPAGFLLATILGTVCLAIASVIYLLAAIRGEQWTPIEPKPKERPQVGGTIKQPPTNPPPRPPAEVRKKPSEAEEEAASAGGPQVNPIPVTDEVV
The assay is described as follows: superoxide anion concentration after inhibition of NADPH oxidase (Cu SOD bell curve shift). Particulars: 208Fsrc3, 120 μM EUK-8, 5 hours. It counts as cell-based. As to the method:
12 500 208Fsrc3 cells (100 μl) received the stated concentrations of Cu SOD and 120 μM EUK-8. In addition the stated concentrations of the NADPH oxidase inhibitor AEBSF (4-(2-Aminoethyl)-benzenesulfonyl fluoride) were added. Control preparations remained free of AEBSF. After 5 hours the percentages of apoptotic cells were determined in duplicate preparations.

Turning to `NCCc1ccc(S(=O)(=O)F)cc1` [AEBSF, 4-(2-Aminoethyl)-benzenesulfonyl fluoride], the “reduction in superoxide anion concentration on doubling of the inhibitor concentration” value was “fourfold”.

The record behind these values is patent publication US20160220542A1, “SYNERGISTIC ACTIVITY OF MODULATORS OF THE NO METABOLISM AND OF NADPH OXIDASE IN THE SENSITISATION OF TUMOR CELLS” (Universitaetsklinikum Freiburg, priority 2010, published 2016).
